{"source": "patent US20160279190A1", "about": "“MODULATION OF AXON DEGENERATION” (GENENTECH, INC., priority 2008, published 2016)", "key": {"[1]": {"test_system": "DRGs", "experiment": "anti-NGF antibody (NGF withdrawal) screen for inhibitors of neuron or axon degeneration", "format": "cell-based, mouse", "conditions": "inhibitor 100 μM or 10 μM added 1 hour before 25 μg/ml anti-NGF antibodies; 20 hours; actin staining", "method": "The anti-NGF antibody model described above in Example 1 was used in a screen for inhibitors of neuron or axon degeneration. A library of more than 400 small molecules (Tocris Bioscience) was tested to see which, if any, modulate degeneration observed in the presence of anti-NGF antibodies.\nMouse E13.5 embryos were dissected and placed into L15 medium (Invitrogen). The spinal cord was dissected out from the embryos with DRGs attached. The spinal cords with DRGs attached were placed into L15 medium+5% goat serum (Gibco) on ice. The DRGs were removed using a tungsten needle and the remaining spinal cord was disposed of. Eight well slides were filled with N3-F12 solution (23 ml Ham's F12, 1 ml N3 supplement, and 1 ml 1 M glucose) to which was added 25 ng/ml NGF (Roche). (N3 supplement was made by dilution of N3 100× concentrate, which was made by mixing the following ingredients, in the following order: 5.0 ml Hank's buffered saline solution (HBSS; Ca, Mg free; Invitrogen), 1.0 ml bovine serum albumin (10 mg/ml in HBSS=150 μm), 2.0 ml Transferrin (T1147-1G, human, 100 mg/ml in HBSS=1.1 mM), 1.0 ml sodium selenite (S9133-1MG, 0.01 mg/ml in HBSS=58 μM), 0.4 ml putrescine dihydrochloride (P5780-5G, 80 mg/ml in HBSS=500 mM), 0.2 ml progesterone (P8783-5G, 0.125 mg/ml in absolute ethanol=400 μM), 0.02 ml corticosterone (C2505-500MG, 2 mg/ml in absolute ethanol=5.8 mM), 0.1 ml triiodothyonine, sodium salt (T6397-100MG, 0.2 mg/ml in 0.01 N NaOH=300 μM), 0.4 ml insulin (16634-250MG, bovine pancreas, 241 U/mg, 25 mg/ml in 20 mM HCl=4.4 mM), for a total volume of 10.02 ml (can be stored at −20° C.). An N3 supplement stock was made by combining the following: 10 ml Pen/Strep (100×, Gibco), 10 ml glutamine (200 mM, Gibco), 10 ml MEM vitamins (100×, Gibco), 10 ml N3 concentrate (100×, see above), for a total volume of 40 ml. The mixture was filter sterilized using a 0.22 μm filter, and 1-2 ml aliquots were stored at −20° C.).\nThe DRGs were sectioned into halves, and placed in the center of each well of an 8-chamber slide (BD Biocoat PDL/Laminin coated glass, Becton Dickinson). The DRGs were permitted to attach to the slide at room temperature for 5-10 minutes, followed by an overnight incubation at 37° C. Inhibitors of choice were added at a concentration of 100 μM (top row) or 10 μM (bottom row) 1 hour before adding anti-NGF antibodies. The anti-NGF antibodies were added to the right half of the slide (4 wells) at a concentration of 25 μg/ml. After incubation for 20 hours at 37° C., the slides were fixed with 30% sucrose/8% paraformaldehyde (PFA) by adding 250 μl of the fix solution directly to the 250 μl of culture medium. (To make the 30% sucrose/8% PFA solution, the following ingredients were added to a 600 ml beaker including a stir bar: 250 ml 16% PFA (cat#15710-S, Electron Microscopy Sciences), 50 ml 10×PBS pH 7.4, and 150 g sucrose. The solution was mixed under low heat until dissolved, and then 6-8 drops of 1 M NaOH were added to bring the pH to 7.4. The volume was then brought to 500 ml with water in a graduated cylinder. The solution was mixed well, placed in aliquots, and frozen.) The slides were fixed for 30 minutes, followed by washing once with PBS. All cells were labeled with an actin stain (Alexa-568 conjugated phalloidin; 1:40; Invitrogen), a membrane dye (DiO; 1:200; Invitrogen), and a DNA stain (Hoechst 33258; 1:10,000; Invitrogen) in 0.1% Triton and 1% goat serum for 2 hours at room temperature. […]"}, "[2]": {"test_system": "CaMKK", "conditions": "CaMKK activity after ionomycin stimulation, transfected HeLa cells; published source (footnote e, cell marked c); read-out: Cellular IC50; cited from earlier work"}}, "note": "pIC50: −log10 of the molar value.", "data": [{"compound": "O=C(O)c1ccc2c3c1cccc3c(=O)n1c3ccccc3nc21", "note": "[STO-609]", "values": [{"measurement": "Comments (observations on protection against neurodegeneration upon NGF withdrawal)", "setting": "[1]", "result": "Partial"}, {"measurement": "pIC50", "setting": "[2]", "result": 5.52}]}]}
